Data as given in ChEMBL document CHEMBL6109143, “Adamantane-Quinoxalone Hybrids: Precision Chemotypes and Their Molecular Mechanisms in Acute Myeloid Leukemia” (J Med Chem, 2025).
pIC50: −log10 of the molar value. Active and inactive are the calls of the source. The rule behind the calls is not given here.

Assays:
Kasumi 1 [1] = test: Cytotoxicity against human Kasumi 1 cells assessed as reduction in cell viability at 50 uM incubated for 24 hrs by MTT assay relative to control; type: functional
Kasumi 1 [2] = test: Downregulation of HMMR gene expression in human Kasumi 1 cells at IC50 concentration incubated for 24 hrs by RNA sequencing analysis; type: functional, cell-based
Kasumi 1 [3] = test: Downregulation of MYCN gene expression in human Kasumi 1 cells at IC50 concentration incubated for 24 hrs by RNA sequencing analysis; type: functional, cell-based
Kasumi 1 [4] = test: Downregulation of CD109 gene expression in human Kasumi 1 cells at IC50 concentration incubated for 24 hrs by RNA sequencing analysis; type: functional, cell-based
Kasumi 1 [5] = test: Induction of cell cycle arrest in human Kasumi 1 cells assessed as increase in cells at G1 phase at IC50 concentration incubated for 24 hrs by PI staining based flow cytometric analysis (reference value: 66.25 %); type: functional
Kasumi 1 [6] = test: Downregulation of estrogen pathway related genes in human Kasumi 1 cells at IC50 concentration incubated for 24 hrs by RNA sequencing analysis; type: functional, cell-based
Kasumi 1 [7] = test: Downregulation of UGFR1 gene expression in human Kasumi 1 cells at IC50 concentration incubated for 24 hrs by RNA sequencing analysis; type: functional, cell-based
Kasumi 1 [8] = test: Effect on MYC target related protein expression in human Kasumi 1 cells by GSEA; type: functional, cell-based
Kasumi 1 [9] = test: Downregulation of KRAS signaling pathway related genes in human Kasumi 1 cells at IC50 concentration incubated for 24 hrs by RNA sequencing analysis; type: functional, cell-based
THP-1 = test: Cytotoxicity against human THP-1 cells harboring chromosomal translocation(9;11) assessed as reduction in cell viability incubated for 24 hrs by MTT assay; type: functional, cell-based; details: THP-1, 24 h
Kasumi 1 [10] = test: Upregulation of KLF2 gene expression in human Kasumi 1 cells at IC50 concentration incubated for 24 hrs by RNA sequencing analysis; type: functional, cell-based
Kasumi 1 [11] = test: Induction of cell cycle arrest in human Kasumi 1 cells assessed as increase in cells at G2/M phase at IC50 concentration incubated for 24 hrs by PI staining based flow cytometric analysis; type: functional
Kasumi 1 [12] = test: Induction of cell cycle arrest in human Kasumi 1 cells assessed as decrease in cells at S phase at IC50 concentration incubated for 24 hrs by PI staining based flow cytometric analysis; type: functional
Kasumi 1 [13] = test: Induction of apoptosis in human Kasumi 1 cells assessed as early apoptotic cells at IC50 concentration incubated for 24 hrs by Annexin V/PI staining based flow cytometric analysis (reference value: 2.38 %); type: functional
Kasumi 1 [14] = test: Effect on mTORC1 signaling related protein expression in human Kasumi 1 cells by GSEA; type: functional, cell-based
Kasumi 1 [15] = test: Upregulation of interferon-gamma response related genes in human Kasumi 1 cells at IC50 concentration incubated for 24 hrs by RNA sequencing analysis; type: functional, cell-based
Kasumi 1 [16] = test: Effect on hypoxia pathway related protein expression in human Kasumi 1 cells by GSEA; type: functional, cell-based
Kasumi 1 [17] = test: Downregulation of BCL6 gene expression in human Kasumi 1 cells at IC50 concentration incubated for 24 hrs by RNA sequencing analysis; type: functional, cell-based
Kasumi 1 [18] = test: Downregulation of PIM1 gene expression in human Kasumi 1 cells at IC50 concentration incubated for 24 hrs by RNA sequencing analysis; type: functional, cell-based
Kasumi 1 [19] = test: Downregulation of E2F target related genes in human Kasumi 1 cells at IC50 concentration incubated for 24 hrs by RNA sequencing analysis; type: functional, cell-based
Kasumi 1 [20] = test: Induction of cell cycle arrest in human Kasumi 1 cells assessed as increase in cells at S phase at IC50 concentration incubated for 24 hrs by PI staining based flow cytometric analysis (reference value: 27.09 %); type: functional
Kasumi 1 [21] = test: Downregulation of MELK protein expression in human Kasumi 1 cells at IC50 concentration incubated for 24 hrs by LC-MS/MS analysis; type: functional, cell-based
Kasumi 1 [22] = test: Effect on E2F target related protein expression in human Kasumi 1 cells by GSEA; type: functional, cell-based
Kasumi 1 [23] = test: Induction of apoptosis in human Kasumi 1 cells assessed as viable cells at IC50 concentration incubated for 24 hrs by Annexin V/PI staining based flow cytometric analysis (reference value: 95.43 %); type: functional
Kasumi 1 [24] = test: Downregulation of KRAS signaling related genes in human Kasumi 1 cells at IC50 concentration incubated for 24 hrs by RNA sequencing analysis; type: functional, cell-based
Kasumi 1 [25] = test: Upregulation of DACH1 gene expression in human Kasumi 1 cells at IC50 concentration incubated for 24 hrs by RNA sequencing analysis; type: functional, cell-based
A549 = test: Cytotoxicity against human A549 cells assessed as cell viability at 1 to 50 uM incubated for 24 hrs by MTT assay; type: functional, cell-based; details: dose 1-50 µM
MCF-10A = test: Cytotoxicity against human MCF-10A cells assessed as cell viability incubated for 24 hrs by MTT assay; type: toxicity, cell-based
Kasumi 1 [26] = test: Downregulation of G2M checkpoint related genes in human Kasumi 1 cells at IC50 concentration incubated for 24 hrs by RNA sequencing analysis; type: functional, cell-based
[27] = Cytotoxicity against human Oral epithelial cells assessed as cell viability incubated for 24 hrs by MTT assay; type: toxicity, cell-based
Kasumi 1 [28] = test: Induction of apoptosis in human Kasumi 1 cells assessed as necrotic apoptotic cells at IC50 concentration incubated for 24 hrs by Annexin V/PI staining based flow cytometric analysis (reference value: 0.12 %); type: functional
Kasumi 1 [29] = test: Effect on oxidative phosphorylation related protein expression in human Kasumi 1 cells by GSEA; type: functional, cell-based
Kasumi 1 [30] = test: Upregulation of NR5A1 gene expression in human Kasumi 1 cells at IC50 concentration incubated for 24 hrs by RNA sequencing analysis; type: functional, cell-based
Kasumi 1 [31] = test: Effect on adipogenesis pathway related protein expression in human Kasumi 1 cells by GSEA; type: functional, cell-based
Kasumi 1 [32] = test: Upregulation of CSF3R gene expression in human Kasumi 1 cells at IC50 concentration incubated for 24 hrs by RNA sequencing analysis; type: functional, cell-based
Kasumi 1 [33] = test: Upregulation of interferon-alpha response related genes in human Kasumi 1 cells at IC50 concentration incubated for 24 hrs by RNA sequencing analysis; type: functional, cell-based
Kasumi 1 [34] = test: Effect on glycolysis pathway related protein expression in human Kasumi 1 cells by GSEA; type: functional, cell-based
Kasumi 1 [35] = test: Downregulation of TNF-alpha signaling related genes in human Kasumi 1 cells at IC50 concentration incubated for 24 hrs by RNA sequencing analysis; type: functional, cell-based
MDA-MB-231 = test: Cytotoxicity against human MDA-MB-231 cells assessed as cell viability at 1 to 50 uM incubated for 24 hrs by MTT assay; type: functional, cell-based; details: dose 1-50 µM
Kasumi 1 [36] = test: Induction of cell cycle arrest in human Kasumi 1 cells assessed as increase in cells at G2 phase at IC50 concentration incubated for 24 hrs by PI staining based flow cytometric analysis (reference value: 6.65 %); type: functional
Kasumi 1 [37] = test: Downregulation of CDK1 protein expression in human Kasumi 1 cells at IC50 concentration incubated for 24 hrs by LC-MS/MS analysis; type: functional, cell-based
CAL-27 = test: Cytotoxicity against human CAL-27 cells assessed as cell viability at 1 to 50 uM incubated for 24 hrs by MTT assay; type: functional, cell-based; details: dose 1-50 µM
ARPE-19 = test: Cytotoxicity against human ARPE-19 cells assessed as reduction in cell viability incubated for 24 hrs by MTT assay; type: toxicity, cell-based; details: arpe-19, 24 h
Kasumi 1 [38] = test: Cytotoxicity against human Kasumi 1 cells harboring chromosomal translocation(8;21) assessed as reduction in cell viability incubated for 24 hrs by MTT assay; type: functional, cell-based; details: Kasumi 1, 24 h
Kasumi 1 [39] = test: Induction of apoptosis in human Kasumi 1 cells assessed as late apoptotic cells at IC50 concentration incubated for 24 hrs by Annexin V/PI staining based flow cytometric analysis (reference value: 2.07 %); type: functional

SMILES: Cc1cc2c(cc1C)N(Cc1ccccc1)C(=O)C(C13CC4CC(CC(C4)C1)C3)N2 (stereo not drawn)
- Activity (Kasumi 1 [1]): >30%

SMILES: CCN1C(=O)C(C23CC4CC(CC(C4)C2)C3)Nc2ccccc21 (stereo not drawn)
- Activity (Kasumi 1 [1]): >30%

SMILES: O=C1C(C23CC4CC(CC(C4)C2)C3)Nc2ccccc2N1Cc1ccc(Br)cc1 (stereo not drawn)
- Activity (Kasumi 1 [1]): >30%

SMILES: O=C1C(C23CC4CC(CC(C4)C2)C3)Nc2ccccc2N1c1ccccc1 (stereo not drawn)
- Activity (Kasumi 1 [2]): Active
- Activity (Kasumi 1 [3]): Active
- Activity (Kasumi 1 [4]): Active
- Activity (Kasumi 1 [5]): 68.99%
- Activity (Kasumi 1 [6]): Active
- Activity (Kasumi 1 [7]): Active
- Activity (Kasumi 1 [8]): Active
- Activity (Kasumi 1 [9]): Active
- pIC50 (THP-1): 4.39
- Activity (Kasumi 1 [10]): Active
- Activity (Kasumi 1 [11]): Active
- Activity (Kasumi 1 [12]): Active
- Activity (Kasumi 1 [13]): 10.74%
- Activity (Kasumi 1 [14]): Active
- Activity (Kasumi 1 [15]): Active
- Activity (Kasumi 1 [16]): Active
- Activity (Kasumi 1 [17]): Active
- Activity (Kasumi 1 [1]): <30%
- Activity (Kasumi 1 [18]): Active
- Activity (Kasumi 1 [19]): Active
- Activity (Kasumi 1 [20]): 18.69%
- Activity (Kasumi 1 [21]): Active
- Activity (Kasumi 1 [22]): Active
- Activity (Kasumi 1 [23]): 83.88%
- Activity (Kasumi 1 [24]): Active
- Activity (Kasumi 1 [25]): Active
- Activity (A549): inactive
- Activity (MCF-10A): Non-toxic
- Activity (Kasumi 1 [26]): Active
- Activity [27]: Non-toxic
- Activity (Kasumi 1 [28]): 0.02%
- Activity (Kasumi 1 [29]): Active
- Activity (Kasumi 1 [30]): Active
- Activity (Kasumi 1 [31]): Active
- Activity (Kasumi 1 [32]): Active
- Activity (Kasumi 1 [33]): Active
- Activity (Kasumi 1 [34]): Active
- Activity (Kasumi 1 [35]): Active
- Activity (MDA-MB-231): inactive
- Activity (Kasumi 1 [36]): 12.31%
- Activity (Kasumi 1 [37]): Active
- Activity (CAL-27): inactive
- Activity (ARPE-19): Non-toxic
- pIC50 (Kasumi 1 [38]): 5.68
- Activity (Kasumi 1 [39]): 5.37%

SMILES: CC(C)CCN1C(=O)C(C23CC4CC(CC(C4)C2)C3)Nc2ccccc21 (stereo not drawn)
- Activity (Kasumi 1 [1]): >30%

SMILES: CN1C(=O)C(C23CC4CC(CC(C4)C2)C3)Nc2ccccc21 (stereo not drawn)
- Activity (Kasumi 1 [1]): >30%

SMILES: C=CCN1C(=O)C(C23CC4CC(CC(C4)C2)C3)Nc2ccccc21 (stereo not drawn)
- pIC50 (THP-1): < 4.30
- Activity (Kasumi 1 [1]): <30%
- pIC50 (Kasumi 1 [38]): 4.43

SMILES: CC(C)CCCC(C)CCN1C(=O)C(C23CC4CC(CC(C4)C2)C3)Nc2ccccc21 (stereo not drawn)
- Activity (Kasumi 1 [1]): >30%

SMILES: O=C1C(C23CC4CC(CC(C4)C2)C3)Nc2ccccc2N1c1ccc2ccccc2c1 (stereo not drawn)
- Activity (Kasumi 1 [1]): >30%

SMILES: O=C1C(C23CC4CC(CC(C4)C2)C3)Nc2ccccc2N1Cc1ccc(F)cc1 (stereo not drawn)
- Activity (Kasumi 1 [1]): >30%

SMILES: Cc1ccccc1CN1C(=O)C(C23CC4CC(CC(C4)C2)C3)Nc2ccccc21 (stereo not drawn)
- Activity (Kasumi 1 [1]): >30%

SMILES: O=C1C(C23CC4CC(CC(C4)C2)C3)Nc2ccccc2N1Cc1ccccc1 (stereo not drawn)
- Activity (Kasumi 1 [1]): >30%
